Three compounds from publication PMC4685510, “A Cell Biologist’s Field Guide to Aurora Kinase Inhibitors” (Frontiers in Oncology, 2015) can be followed below.

Each structure is given as a SMILES string.

Test in all cases: biochemical
Common to all, as to format: biochemical

Experiment [1] concerns the target 363 human kinases (including Aurora A/B/C) (Homo sapiens, UniProt P32298). Particulars: GRK4; for remaining activity at 0.1 µM: 100 nM; for remaining activity at 0.1 µM / remaining activity at 0.5 µM: read-out: % Enzyme Activity (relative to DMSO controls).
Text: (§1) However, the Aurora A/B selectivity ratios derived from our in vitro and in vivo data can be compared to prioritize inhibitors.
For experiment [2], the target named is 363 human kinases (including Aurora A/B/C) (Homo sapiens, UniProt Q9Y2H1). Particulars: STK38L/NDR2; for remaining activity at 0.1 µM: 100 nM; for remaining activity at 0.1 µM / remaining activity at 0.5 µM: read-out: % Enzyme Activity (relative to DMSO controls).
Sequence of 363 human kinases (including Aurora A/B/C) (Homo sapiens, UniProt Q9Y2H1) (Q9Y2H1 whole entry): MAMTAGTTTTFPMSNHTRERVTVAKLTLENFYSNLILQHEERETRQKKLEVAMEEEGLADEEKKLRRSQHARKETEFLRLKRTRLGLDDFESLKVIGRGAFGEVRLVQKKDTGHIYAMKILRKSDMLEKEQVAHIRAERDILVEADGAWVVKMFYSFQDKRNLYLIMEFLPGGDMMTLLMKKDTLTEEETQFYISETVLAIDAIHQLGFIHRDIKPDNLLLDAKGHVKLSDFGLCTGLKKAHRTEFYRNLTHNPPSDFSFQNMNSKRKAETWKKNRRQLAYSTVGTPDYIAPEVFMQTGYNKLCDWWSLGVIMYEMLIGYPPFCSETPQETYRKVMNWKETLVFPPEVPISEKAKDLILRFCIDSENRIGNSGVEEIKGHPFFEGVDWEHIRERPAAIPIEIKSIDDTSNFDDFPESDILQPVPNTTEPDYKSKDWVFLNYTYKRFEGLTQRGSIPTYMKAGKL
Text: as §1
In experiment [3] the target is 363 human kinases (including Aurora A/B/C) (Homo sapiens, UniProt P53779). Particulars: JNK3; for remaining activity at 0.1 µM: 100 nM; for remaining activity at 0.1 µM / remaining activity at 0.5 µM: read-out: % Enzyme Activity (relative to DMSO controls).
Text: as §1
Experiment [4] addresses 363 human kinases (including Aurora A/B/C) (Homo sapiens, UniProt O15075). The note with it: DCAMKL1, [ATP] 50 µM; for remaining activity at 0.1 µM: 100 nM; for remaining activity at 0.1 µM / remaining activity at 0.5 µM: read-out: % Enzyme Activity (relative to DMSO controls).
Text: as §1
The target in experiment [5] is T1, 363 human kinases (including Aurora A/B/C) (Homo sapiens, UniProt P20794).
T1 sequence (P20794 1-623): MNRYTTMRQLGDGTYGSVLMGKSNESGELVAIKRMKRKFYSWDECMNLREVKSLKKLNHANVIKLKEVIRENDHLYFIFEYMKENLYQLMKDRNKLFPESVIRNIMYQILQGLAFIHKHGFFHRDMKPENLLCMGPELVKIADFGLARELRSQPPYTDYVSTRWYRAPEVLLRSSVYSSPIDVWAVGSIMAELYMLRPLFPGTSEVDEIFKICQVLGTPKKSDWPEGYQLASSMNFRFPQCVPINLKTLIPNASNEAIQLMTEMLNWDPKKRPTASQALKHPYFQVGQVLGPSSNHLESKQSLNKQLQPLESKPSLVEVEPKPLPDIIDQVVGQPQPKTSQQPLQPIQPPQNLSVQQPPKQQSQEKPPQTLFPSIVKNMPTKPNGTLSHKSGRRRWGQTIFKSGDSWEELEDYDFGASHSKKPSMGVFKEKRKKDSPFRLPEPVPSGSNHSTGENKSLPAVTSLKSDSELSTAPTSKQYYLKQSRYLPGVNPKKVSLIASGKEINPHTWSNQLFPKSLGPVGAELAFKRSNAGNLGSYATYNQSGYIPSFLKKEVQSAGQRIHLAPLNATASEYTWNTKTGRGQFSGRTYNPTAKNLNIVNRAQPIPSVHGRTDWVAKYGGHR
The note with it: MAK; for remaining activity at 0.1 µM: 100 nM; for remaining activity at 0.1 µM / remaining activity at 0.5 µM: read-out: % Enzyme Activity (relative to DMSO controls).
Text: as §1

Experiment [6] deals with 363 human kinases (including Aurora A/B/C) (Homo sapiens, UniProt Q5TCX8). Particulars: MLK4; for remaining activity at 0.1 µM: 100 nM; for remaining activity at 0.1 µM / remaining activity at 0.5 µM: read-out: % Enzyme Activity (relative to DMSO controls).
Sequence of 363 human kinases (including Aurora A/B/C) (Homo sapiens, UniProt Q5TCX8) (Q5TCX8 whole entry): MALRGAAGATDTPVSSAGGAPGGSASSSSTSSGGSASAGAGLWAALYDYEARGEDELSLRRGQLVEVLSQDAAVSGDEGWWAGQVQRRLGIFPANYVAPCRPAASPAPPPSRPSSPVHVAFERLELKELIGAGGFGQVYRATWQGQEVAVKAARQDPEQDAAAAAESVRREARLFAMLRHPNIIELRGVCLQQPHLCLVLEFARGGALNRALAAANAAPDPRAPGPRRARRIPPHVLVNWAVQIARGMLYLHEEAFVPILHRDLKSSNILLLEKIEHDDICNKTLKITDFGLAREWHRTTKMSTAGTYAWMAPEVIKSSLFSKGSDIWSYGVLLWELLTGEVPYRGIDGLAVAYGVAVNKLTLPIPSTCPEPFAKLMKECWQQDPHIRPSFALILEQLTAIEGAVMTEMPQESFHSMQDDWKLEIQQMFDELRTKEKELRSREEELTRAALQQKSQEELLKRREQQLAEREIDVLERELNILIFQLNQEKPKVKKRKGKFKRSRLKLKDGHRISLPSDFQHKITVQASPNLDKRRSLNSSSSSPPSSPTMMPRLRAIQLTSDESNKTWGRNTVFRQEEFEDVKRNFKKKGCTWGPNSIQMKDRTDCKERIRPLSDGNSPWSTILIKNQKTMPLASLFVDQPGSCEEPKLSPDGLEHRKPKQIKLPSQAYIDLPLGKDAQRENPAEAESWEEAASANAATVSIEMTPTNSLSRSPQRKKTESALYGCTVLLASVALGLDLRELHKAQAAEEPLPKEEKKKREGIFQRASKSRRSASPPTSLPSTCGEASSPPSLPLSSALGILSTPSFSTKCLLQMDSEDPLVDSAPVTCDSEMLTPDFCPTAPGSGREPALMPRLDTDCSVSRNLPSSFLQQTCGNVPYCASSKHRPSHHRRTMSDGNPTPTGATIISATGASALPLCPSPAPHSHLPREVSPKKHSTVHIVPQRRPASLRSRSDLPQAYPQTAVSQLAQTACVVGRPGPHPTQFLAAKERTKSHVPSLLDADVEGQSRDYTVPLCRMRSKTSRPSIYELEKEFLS
Text: as §1
Experiment [7] has as its target T2, 363 human kinases (including Aurora A/B/C) (Homo sapiens, UniProt Q12852).
T2 sequence (Q12852 1-859): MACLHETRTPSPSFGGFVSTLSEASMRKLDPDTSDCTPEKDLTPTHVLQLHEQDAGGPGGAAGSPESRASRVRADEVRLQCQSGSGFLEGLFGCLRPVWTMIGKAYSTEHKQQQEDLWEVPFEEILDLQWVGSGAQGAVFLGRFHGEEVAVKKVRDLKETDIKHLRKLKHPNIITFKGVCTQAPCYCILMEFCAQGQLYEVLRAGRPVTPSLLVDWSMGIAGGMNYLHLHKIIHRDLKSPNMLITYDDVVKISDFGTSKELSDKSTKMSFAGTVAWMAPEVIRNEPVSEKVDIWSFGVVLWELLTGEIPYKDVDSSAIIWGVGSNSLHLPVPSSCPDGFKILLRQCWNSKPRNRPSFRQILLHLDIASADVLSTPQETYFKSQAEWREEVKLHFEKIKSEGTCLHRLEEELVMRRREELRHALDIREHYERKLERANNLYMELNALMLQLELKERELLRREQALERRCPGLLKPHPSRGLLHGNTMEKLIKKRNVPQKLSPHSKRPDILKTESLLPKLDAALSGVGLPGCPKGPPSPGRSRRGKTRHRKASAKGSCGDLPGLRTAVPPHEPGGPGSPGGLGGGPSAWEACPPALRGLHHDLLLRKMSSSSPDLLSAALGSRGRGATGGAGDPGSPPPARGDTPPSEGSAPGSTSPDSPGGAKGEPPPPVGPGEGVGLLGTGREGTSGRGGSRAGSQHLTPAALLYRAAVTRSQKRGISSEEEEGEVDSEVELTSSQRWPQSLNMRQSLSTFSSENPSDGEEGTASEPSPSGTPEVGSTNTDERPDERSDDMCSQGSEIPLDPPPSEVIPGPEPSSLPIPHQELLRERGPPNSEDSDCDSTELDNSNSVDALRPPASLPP
The note with it: DLK/MAP3K12, [ATP] 30 µM; for remaining activity at 0.1 µM: 100 nM; for remaining activity at 0.1 µM / remaining activity at 0.5 µM: read-out: % Enzyme Activity (relative to DMSO controls).
Text: as §1

The target of experiment [8] is 363 human kinases (including Aurora A/B/C) (Homo sapiens, UniProt P27361). The note with it: ERK1, [ATP] 100 µM; for remaining activity at 0.1 µM: 100 nM; for remaining activity at 0.1 µM / remaining activity at 0.5 µM: read-out: % Enzyme Activity (relative to DMSO controls).
Sequence of 363 human kinases (including Aurora A/B/C) (Homo sapiens, UniProt P27361) (P27361 whole entry): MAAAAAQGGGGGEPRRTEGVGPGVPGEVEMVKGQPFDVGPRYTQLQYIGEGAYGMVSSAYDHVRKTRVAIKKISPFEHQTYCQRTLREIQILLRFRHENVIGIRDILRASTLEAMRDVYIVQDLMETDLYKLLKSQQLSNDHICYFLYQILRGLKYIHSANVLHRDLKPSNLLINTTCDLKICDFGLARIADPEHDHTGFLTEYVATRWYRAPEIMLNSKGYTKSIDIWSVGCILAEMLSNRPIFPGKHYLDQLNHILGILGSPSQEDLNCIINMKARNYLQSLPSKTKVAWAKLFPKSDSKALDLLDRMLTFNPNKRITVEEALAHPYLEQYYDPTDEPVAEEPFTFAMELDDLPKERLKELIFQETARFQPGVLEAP
Text: as §1
For experiment [9], the target named is T3, 363 human kinases (including Aurora A/B/C) (Homo sapiens, UniProt P51817).
T3 sequence (P51817 1-358): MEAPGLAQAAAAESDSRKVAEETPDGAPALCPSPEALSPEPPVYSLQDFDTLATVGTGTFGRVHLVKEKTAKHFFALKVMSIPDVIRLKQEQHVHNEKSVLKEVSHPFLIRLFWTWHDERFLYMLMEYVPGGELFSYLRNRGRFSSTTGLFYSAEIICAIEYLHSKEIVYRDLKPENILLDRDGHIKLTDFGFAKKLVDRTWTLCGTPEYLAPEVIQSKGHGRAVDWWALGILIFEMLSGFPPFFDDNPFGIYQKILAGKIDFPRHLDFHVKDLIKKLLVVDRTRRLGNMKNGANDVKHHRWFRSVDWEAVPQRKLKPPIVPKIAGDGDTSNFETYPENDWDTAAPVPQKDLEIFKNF
Particulars: PRKX; for remaining activity at 0.1 µM: 100 nM; for remaining activity at 0.1 µM / remaining activity at 0.5 µM: read-out: % Enzyme Activity (relative to DMSO controls).
Text: as §1

For experiment [10], the target named is 363 human kinases (including Aurora A/B/C) (Homo sapiens, UniProt Q9H1R3). The note with it: MLCK2/MYLK2; for remaining activity at 0.1 µM: 100 nM; for remaining activity at 0.1 µM / remaining activity at 0.5 µM: read-out: % Enzyme Activity (relative to DMSO controls).
Sequence of 363 human kinases (including Aurora A/B/C) (Homo sapiens, UniProt Q9H1R3) (Q9H1R3 whole entry): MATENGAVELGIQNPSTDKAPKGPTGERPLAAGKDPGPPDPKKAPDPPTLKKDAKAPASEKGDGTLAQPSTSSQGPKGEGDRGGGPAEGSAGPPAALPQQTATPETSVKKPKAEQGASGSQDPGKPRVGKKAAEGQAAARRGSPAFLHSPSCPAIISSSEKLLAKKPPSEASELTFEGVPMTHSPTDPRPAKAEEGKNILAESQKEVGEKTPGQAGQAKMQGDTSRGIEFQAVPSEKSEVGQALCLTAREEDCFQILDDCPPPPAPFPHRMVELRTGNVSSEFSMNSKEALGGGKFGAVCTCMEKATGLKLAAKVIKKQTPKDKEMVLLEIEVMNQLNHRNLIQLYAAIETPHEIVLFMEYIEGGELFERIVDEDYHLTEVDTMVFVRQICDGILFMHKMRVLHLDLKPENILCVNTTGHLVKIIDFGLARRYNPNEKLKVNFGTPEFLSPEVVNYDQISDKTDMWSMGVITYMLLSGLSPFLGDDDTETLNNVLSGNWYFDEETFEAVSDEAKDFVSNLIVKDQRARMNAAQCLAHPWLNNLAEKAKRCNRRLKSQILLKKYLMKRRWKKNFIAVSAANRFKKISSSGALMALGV
Text: as §1
Experiment [11] has as its target 363 human kinases (including Aurora A/B/C) (Homo sapiens, UniProt P09619). Particulars: PDGFRb; for remaining activity at 0.1 µM: 100 nM; for remaining activity at 0.1 µM / remaining activity at 0.5 µM: read-out: % Enzyme Activity (relative to DMSO controls).
Text: as §1

Sequence of 363 human kinases (including Aurora A/B/C) (Homo sapiens, UniProt P32298) (P32298 whole entry): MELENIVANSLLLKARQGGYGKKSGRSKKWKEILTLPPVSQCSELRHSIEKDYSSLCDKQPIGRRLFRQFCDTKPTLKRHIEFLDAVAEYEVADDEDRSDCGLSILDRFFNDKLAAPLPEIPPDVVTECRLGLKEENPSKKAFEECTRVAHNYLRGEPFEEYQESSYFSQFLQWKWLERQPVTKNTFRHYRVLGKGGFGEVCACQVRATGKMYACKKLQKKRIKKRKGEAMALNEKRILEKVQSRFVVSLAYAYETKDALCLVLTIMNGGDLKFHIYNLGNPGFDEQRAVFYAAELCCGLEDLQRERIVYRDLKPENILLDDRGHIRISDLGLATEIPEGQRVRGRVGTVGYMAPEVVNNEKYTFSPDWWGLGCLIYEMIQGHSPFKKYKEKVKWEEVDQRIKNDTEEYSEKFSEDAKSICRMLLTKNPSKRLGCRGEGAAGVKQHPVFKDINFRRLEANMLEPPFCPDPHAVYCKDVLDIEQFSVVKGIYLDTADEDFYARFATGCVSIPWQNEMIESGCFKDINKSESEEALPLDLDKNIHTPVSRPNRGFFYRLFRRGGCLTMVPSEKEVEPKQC
Sequence of 363 human kinases (including Aurora A/B/C) (Homo sapiens, UniProt P09619) (P09619 33-1106): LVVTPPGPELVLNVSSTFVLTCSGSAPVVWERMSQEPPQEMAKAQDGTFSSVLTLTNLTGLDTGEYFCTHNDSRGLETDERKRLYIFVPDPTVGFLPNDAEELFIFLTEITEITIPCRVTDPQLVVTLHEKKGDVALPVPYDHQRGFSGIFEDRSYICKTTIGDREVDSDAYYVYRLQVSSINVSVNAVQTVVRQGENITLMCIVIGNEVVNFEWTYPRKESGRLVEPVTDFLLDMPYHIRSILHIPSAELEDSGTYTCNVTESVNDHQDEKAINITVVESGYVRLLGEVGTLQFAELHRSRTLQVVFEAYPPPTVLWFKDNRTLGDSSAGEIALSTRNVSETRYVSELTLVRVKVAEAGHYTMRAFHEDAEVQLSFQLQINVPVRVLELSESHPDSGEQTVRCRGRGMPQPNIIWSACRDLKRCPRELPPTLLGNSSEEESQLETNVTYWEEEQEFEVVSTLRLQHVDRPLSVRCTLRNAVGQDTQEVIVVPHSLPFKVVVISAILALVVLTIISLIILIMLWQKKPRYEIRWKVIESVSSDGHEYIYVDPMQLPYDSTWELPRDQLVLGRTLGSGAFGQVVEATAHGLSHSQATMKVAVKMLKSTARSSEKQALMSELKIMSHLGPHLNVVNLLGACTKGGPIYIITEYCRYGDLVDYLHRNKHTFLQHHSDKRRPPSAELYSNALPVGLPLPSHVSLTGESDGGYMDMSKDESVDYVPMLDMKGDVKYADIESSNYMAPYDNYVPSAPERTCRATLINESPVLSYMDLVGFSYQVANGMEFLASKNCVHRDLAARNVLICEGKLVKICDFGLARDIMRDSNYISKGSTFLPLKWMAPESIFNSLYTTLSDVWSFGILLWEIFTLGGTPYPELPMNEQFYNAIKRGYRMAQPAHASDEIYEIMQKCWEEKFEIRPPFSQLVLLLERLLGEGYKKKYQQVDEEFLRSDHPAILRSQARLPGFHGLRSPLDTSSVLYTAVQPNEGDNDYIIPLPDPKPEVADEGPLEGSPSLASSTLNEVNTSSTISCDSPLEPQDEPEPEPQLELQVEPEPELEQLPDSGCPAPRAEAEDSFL
Sequence of 363 human kinases (including Aurora A/B/C) (Homo sapiens, UniProt O15075) (O15075 whole entry): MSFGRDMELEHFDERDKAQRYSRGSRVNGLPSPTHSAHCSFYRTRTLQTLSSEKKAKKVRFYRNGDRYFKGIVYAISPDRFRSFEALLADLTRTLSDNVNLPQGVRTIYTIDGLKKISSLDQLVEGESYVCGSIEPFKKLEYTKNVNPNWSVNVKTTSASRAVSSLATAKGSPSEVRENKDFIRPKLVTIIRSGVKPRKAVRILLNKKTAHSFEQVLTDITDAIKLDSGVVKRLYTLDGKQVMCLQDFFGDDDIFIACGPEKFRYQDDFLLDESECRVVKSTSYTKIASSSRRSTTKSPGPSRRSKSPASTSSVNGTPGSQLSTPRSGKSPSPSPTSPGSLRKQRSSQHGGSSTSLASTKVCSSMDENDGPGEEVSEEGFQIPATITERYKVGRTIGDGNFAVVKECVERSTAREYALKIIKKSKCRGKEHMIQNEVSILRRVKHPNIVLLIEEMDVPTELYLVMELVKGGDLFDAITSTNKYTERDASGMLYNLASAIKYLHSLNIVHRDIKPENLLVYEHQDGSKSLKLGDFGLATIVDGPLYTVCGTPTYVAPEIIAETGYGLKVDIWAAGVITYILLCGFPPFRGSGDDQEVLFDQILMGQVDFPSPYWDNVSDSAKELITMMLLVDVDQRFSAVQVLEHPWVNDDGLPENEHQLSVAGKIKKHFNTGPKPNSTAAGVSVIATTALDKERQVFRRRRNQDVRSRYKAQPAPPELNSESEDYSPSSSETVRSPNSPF

For `CCn1cc(-c2ccnc3[nH]c(-c4cccc(CN(C)C)c4)cc23)c(-c2ccc(NC(=O)N(C)C)cc2)n1` [GSK1070916], the remaining activity at 0.1 µM in experiment [1] came out at 95.2%; in experiment [2], 95.7%; in experiment [3], 94%; in experiment [4], 114%; in [5] it was 100%; in experiment [6] it was 89%. The remaining activity at 0.1 µM worked out at 80.4% in experiment [7]; 109% in experiment [8]; 92.6% in experiment [9]; 96.2% in experiment [10]; 90.4% in experiment [11].

`O=C(O)[C@]1(Cc2cccc(Nc3nccs3)n2)CC[C@@H](Oc2cccc(Cl)c2F)CC1` [MK-5108]: the remaining activity at 0.1 µM was found to be 96.7% in experiment [1]; 99.6% in experiment [2]; 96.1% in experiment [3]; 108% in experiment [4]; 84.8% in [5]; 113% in experiment [6]. Moreover, the remaining activity at 0.1 µM in [7] stood at 72.1%; in experiment [8], 88.9%; in experiment [9] it was 99.8%; in [10] it was 102%; in experiment [11] it was 86.7%. For the same compound, the remaining activity at 0.5 µM was found to be 92.9% in experiment [1] (500 nM); 97.8% in [2] (500 nM); 98.7% in experiment [3] (500 nM); 131% in experiment [4] (500 nM); 79.5% in experiment [5] (500 nM); 34.7% in experiment [6] (500 nM). Further, the remaining activity at 0.5 µM in experiment [7] (500 nM) is 23.1%; in experiment [8] (500 nM), 107%; in experiment [9] (500 nM) it was 97.6%; in experiment [10] (500 nM), 97.8%; in experiment [11] (500 nM), 67.2%.

In the case of `O=C(c1cccc(Cl)c1F)N1CCN(Cc2cccc(Nc3nccs3)n2)CC1` [MK-8745], the “% Enzyme Activity (relative to DMSO controls)” value in [1] (500 nM) is recorded as 94.47%; in experiment [2] (500 nM), 96.64%; in experiment [3] (500 nM) it was 78.39%; in [4] (500 nM), 138.94%; in [5] (500 nM), 86.85%; in [6] (500 nM), 91.32%. Also, the “% Enzyme Activity (relative to DMSO controls)” value is 53.85% in experiment [7] (500 nM); 100.59% in experiment [8] (500 nM); 95.41% in experiment [9] (500 nM); 94.16% in experiment [10] (500 nM); 88.70% in experiment [11] (500 nM). The remaining activity at 0.5 µM is 94.8% in experiment [1] (500 nM); 98.4% in [2] (500 nM); 78.8% in experiment [3] (500 nM); 142% in [4] (500 nM); 87% in experiment [5] (500 nM); 91.5% in [6] (500 nM). Also, the remaining activity at 0.5 µM in experiment [7] (500 nM) came out at 59.2%; in experiment [8] (500 nM), 102%; in experiment [9] (500 nM), 96.5%; in experiment [10] (500 nM), 94.3%; in experiment [11] (500 nM), 89.7%.
